Experimental data as given in the OPERA property sets (Mansouri et al. 2018).
Converted amounts (≈) assume the structure as drawn.

SMILES | solubility (25 °C) | solubility (20 °C) | further results
O=C(O)C(S)CCC(S)C(=O)O (stereo not given) | 3.34 mM (≈ 703 µg/mL) |  | 
NC(=O)NC(Cc1ccccc1)C(=O)O (racemic) |  | 8.02 mM (≈ 1670 µg/mL) | 
CCOCCOC(=O)CCCCCCCCC(=O)OCCOCC |  |  | solubility: 0.635 mM (≈ 220 µg/mL)
CCc1nc2c(c(=O)n(C)c(=O)n2C)n1C | 27 mM (≈ 6000 µg/mL) |  | 
FC(F)(F)c1nc2ncncc2[nH]1 |  | 354 mM (≈ 66700 µg/mL) | 
Nc1cc([N+](=O)[O-])ccc1Br | 0.277 mM (≈ 60 µg/mL) |  | 
CC1(C)OC(=O)c2cc3ccccc3cc21 |  |  | solubility: 1.04 mM (≈ 220 µg/mL)
O=C(O)COCC(=O)O | 3110 mM (≈ 417000 µg/mL) |  | 
CCC(=NO)C(CC)=NO | 2.8 mM (≈ 404 µg/mL) |  | 
c1ccc2c3c(ccc2c1)Nc1ccc2ccccc2c1S3 |  | 0.000132 mM (≈ 0.0396 µg/mL) | 
CCCCP(=O)(CCCC)OCC | 63 mM (≈ 13000 µg/mL) |  | 
CCCC(C)(O)CCC | 25.9 mM (≈ 3370 µg/mL) |  | 
CCCCCCCCCCOC(=O)c1cccnc1 | 0.646 mM (≈ 170 µg/mL) |  | 
NC(=O)C(Br)Br |  | 87.6 mM (≈ 19000 µg/mL) | 
c1ncc2n[nH]nc2n1 |  | 586 mM (≈ 71000 µg/mL) | 
CCCCCOC(=O)c1ccc(O)cc1 |  |  | solubility (30 °C): 0.154 mM (≈ 32 µg/mL)
O=C(O)c1ccc(F)c([N+](=O)[O-])c1 | 26.2 mM (≈ 4860 µg/mL) |  | 
Nc1nc2c(O)cccc2s1 |  | 12 mM (≈ 2000 µg/mL) | 
CC1(C)C2CCC1(C)C(N)(C(=O)O)C2 (stereo not given) |  | 25.3 mM (≈ 5000 µg/mL) | 
COCOC(=O)c1ccccc1O |  |  | solubility (22 °C): 5.01 mM (≈ 913 µg/mL)

SMILES | solubility (25 °C) | solubility (20 °C) | further results
O=C(O)c1cccc2cccnc12 | 18 mM (≈ 3120 µg/mL) |  | 
O=C(O)CC[Se][Se]CCC(=O)O | 5.39 mM (≈ 1640 µg/mL) |  | 
NC(CO)C(=O)N[C@@H](CO)C(=O)O (stereo in doubt) |  |  | solubility: 260 mM (≈ 50000 µg/mL)
CCCCn1cnc2c1c(=O)n(C)c(=O)n2C |  |  | solubility (30 °C): 15.6 mM (≈ 3690 µg/mL)
CCOC(=O)c1c(C)oc(C)c(C(=O)OCC)c1=O |  | 29.8 mM (≈ 8000 µg/mL) | 
NC(N)=NCCS(=O)(=O)O |  |  | solubility (21 °C): 233 mM (≈ 39000 µg/mL)
CC1(C)CO1 |  | 804 mM (≈ 58000 µg/mL) | 
CCOCCC(=O)OC | 847 mM (≈ 112000 µg/mL) |  | 
N#CCCNC(CCC(=O)O)C(=O)O (stereo not given) |  |  | solubility (26 °C): 49.9 mM (≈ 10000 µg/mL)
CCCCOP(=O)(O)OCCCC | 81.8 mM (≈ 17200 µg/mL) |  | 
NCCc1ccc(O)c([N+](=O)[O-])c1 |  |  | solubility: 45.7 mM (≈ 8330 µg/mL)
CCn1c(=O)c2c(ncn2C)n(C)c1=O |  |  | solubility (30 °C): 191 mM (≈ 39800 µg/mL)
O=C(O)c1ccc(O)cc1O | 37.5 mM (≈ 5780 µg/mL) |  | 
CCCCCCC(C/C=C\CCCCCCCC(=O)O)OS(=O)(=O)O (stereo not given) | 264 mM (≈ 100000 µg/mL) |  | 
CCCCCCCS |  | 0.07 mM (≈ 9.26 µg/mL) | 
CN[C@@H](Cc1ccc(O)cc1)C(=O)O |  | 7.37 mM (≈ 1440 µg/mL) | 
CC(=O)OCCCOC(C)=O |  |  | solubility: 624 mM (≈ 100000 µg/mL)
Oc1ccc(C2CCCCC2)c(O)c1 | 2.65 mM (≈ 510 µg/mL) |  | 
Cc1cc(O)c(Cc2ccccc2)c(C)c1Cl | 0.05 mM (≈ 12.3 µg/mL) |  | 
CC(C)C1(Br)C(=O)NC(=O)NC1=O |  | 6.18 mM (≈ 1540 µg/mL) | 

SMILES | solubility (25 °C) | solubility (20 °C) | further results
COC(C)C(C)Cl (stereo not given) |  |  | solubility (30 °C): 10 mM (≈ 1230 µg/mL)
CCCCCCC(C(=O)O)C(=O)O | 22 mM (≈ 4150 µg/mL) |  | 
O=C(O)C=C(CC(=O)O)C(=O)O |  | 2450 mM (≈ 427000 µg/mL) | 
O=C(O)c1ccccc1CO |  | 28.1 mM (≈ 4280 µg/mL) | 
COc1ccc(NC(N)=O)cc1 |  |  | solubility (21 °C): 25.6 mM (≈ 4250 µg/mL)
O=C(O)Cc1c[nH]c(=O)[nH]c1=O |  |  | solubility (30 °C): 23.5 mM (≈ 4000 µg/mL)
CNC(CC(=O)O)C(=O)O (stereo in doubt) |  |  | solubility (21 °C): 176 mM (≈ 25900 µg/mL)
CCC(=O)Oc1ccc([N+](=O)[O-])cc1 | 0.128 mM (≈ 25 µg/mL) |  | 
CCCS | 25 mM (≈ 1900 µg/mL) |  | 
CCOc1ccccc1C=CC(=O)[O-] | 1.19 mM |  | 
CC(C)Cc1nnc(NS(=O)(=O)c2ccc(N)cc2)s1 |  | 0.15 mM (≈ 47 µg/mL) | 
O=C(O)CC(O)C(=O)O (stereo not given) |  | 5790 mM (≈ 777000 µg/mL) | 
CCCCOC(=O)CCOC |  |  | solubility: 61.2 mM (≈ 9800 µg/mL)
O=C(O)c1c(Cl)c(Cl)c(Cl)c(Cl)c1C(=O)O |  | 11.8 mM (≈ 3600 µg/mL) | 
CCCCOC(=O)C(C)OC(C)=O (stereo not given) | 176 mM (≈ 33200 µg/mL) |  | 
NC[C@H](O)C(=O)O |  | 148 mM (≈ 15500 µg/mL) | 
CC1(C)OC(=O)c2cc([N+](=O)[O-])ccc21 | 0.888 mM (≈ 184 µg/mL) |  | 
CC(C)[C@H](NCCC#N)C(=O)O | 75.2 mM (≈ 12800 µg/mL) |  | 
Cc1cc(O)c(C(=O)O)c(O)c1 |  | 8.92 mM (≈ 1500 µg/mL) | 
CC1OC(=O)c2cc(N)ccc21 (stereo not given) | 16.3 mM (≈ 2650 µg/mL) |  | 
